Among the data in ChEMBL document CHEMBL4373732, “Phosphatidylinositol 3 kinase (PI3K) inhibitors as new weapon to combat cancer” (Eur J Med Chem, 2019) are IC50 values, retold here.

The target in experiment [1] is T1, Phosphatidylinositol 4,5-bisphosphate 3-kinase catalytic subunit delta isoform (Homo sapiens, UniProt O00329).
T1 sequence (O00329 whole entry): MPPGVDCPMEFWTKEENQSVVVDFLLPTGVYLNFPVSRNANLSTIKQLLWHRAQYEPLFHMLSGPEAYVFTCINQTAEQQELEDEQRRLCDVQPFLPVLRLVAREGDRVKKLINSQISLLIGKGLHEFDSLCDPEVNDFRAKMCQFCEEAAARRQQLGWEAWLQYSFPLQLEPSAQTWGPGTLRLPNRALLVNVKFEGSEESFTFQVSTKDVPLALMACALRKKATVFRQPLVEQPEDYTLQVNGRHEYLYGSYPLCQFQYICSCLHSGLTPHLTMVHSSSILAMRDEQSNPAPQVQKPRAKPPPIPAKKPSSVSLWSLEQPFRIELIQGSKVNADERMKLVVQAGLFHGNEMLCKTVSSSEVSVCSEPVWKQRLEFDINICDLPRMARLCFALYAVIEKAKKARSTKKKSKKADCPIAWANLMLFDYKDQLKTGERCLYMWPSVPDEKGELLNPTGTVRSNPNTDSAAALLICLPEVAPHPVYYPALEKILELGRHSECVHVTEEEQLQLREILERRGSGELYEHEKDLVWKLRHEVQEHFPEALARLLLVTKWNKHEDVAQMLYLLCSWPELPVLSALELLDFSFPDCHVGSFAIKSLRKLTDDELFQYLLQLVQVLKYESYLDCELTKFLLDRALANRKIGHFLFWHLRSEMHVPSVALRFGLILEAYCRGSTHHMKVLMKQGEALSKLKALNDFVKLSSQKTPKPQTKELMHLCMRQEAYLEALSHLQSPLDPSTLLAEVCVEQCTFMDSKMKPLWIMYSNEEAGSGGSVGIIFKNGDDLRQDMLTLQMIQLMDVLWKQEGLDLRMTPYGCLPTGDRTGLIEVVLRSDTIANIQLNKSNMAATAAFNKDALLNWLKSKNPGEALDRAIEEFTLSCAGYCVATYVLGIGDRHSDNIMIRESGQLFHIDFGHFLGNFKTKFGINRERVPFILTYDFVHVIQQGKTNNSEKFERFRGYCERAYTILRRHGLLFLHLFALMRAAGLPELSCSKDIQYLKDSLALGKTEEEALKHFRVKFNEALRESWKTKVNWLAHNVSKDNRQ
As to the kind of experiment: Inhibition of PI3Kdelta (unknown origin).

Experiment [2] addresses T2, Phosphatidylinositol 4,5-bisphosphate 3-kinase catalytic subunit beta isoform (Homo sapiens, UniProt P42338).
In experiment [3] the target is T3, Phosphatidylinositol 4,5-bisphosphate 3-kinase catalytic subunit gamma isoform (Homo sapiens, UniProt P48736). As to the kind of experiment: Reversible competitive inhibition of PI3K p110gamma (unknown origin).
Experiment [4] concerns the target T2, Phosphatidylinositol 4,5-bisphosphate 3-kinase catalytic subunit beta isoform. In words: Inhibition of PI3K p110beta (unknown origin).
The target of experiment [5] is Serine/threonine-protein kinase mTOR (Homo sapiens, UniProt P42345).
Experiment [6] addresses T3, Phosphatidylinositol 4,5-bisphosphate 3-kinase catalytic subunit gamma isoform. As to the kind of experiment: Inhibition of PI3K p110gamma (unknown origin).
Experiment [7] concerns the target Phosphatidylinositol 4,5-bisphosphate 3-kinase catalytic subunit alpha isoform (Homo sapiens, UniProt P42336). In words: Inhibition of PI3K p110alpha (unknown origin).
Experiment [8] deals with T1, Phosphatidylinositol 4,5-bisphosphate 3-kinase catalytic subunit delta isoform. In words: Inhibition of PI3K p110delta (unknown origin).

T3 sequence (P48736 whole entry, canonical isoform): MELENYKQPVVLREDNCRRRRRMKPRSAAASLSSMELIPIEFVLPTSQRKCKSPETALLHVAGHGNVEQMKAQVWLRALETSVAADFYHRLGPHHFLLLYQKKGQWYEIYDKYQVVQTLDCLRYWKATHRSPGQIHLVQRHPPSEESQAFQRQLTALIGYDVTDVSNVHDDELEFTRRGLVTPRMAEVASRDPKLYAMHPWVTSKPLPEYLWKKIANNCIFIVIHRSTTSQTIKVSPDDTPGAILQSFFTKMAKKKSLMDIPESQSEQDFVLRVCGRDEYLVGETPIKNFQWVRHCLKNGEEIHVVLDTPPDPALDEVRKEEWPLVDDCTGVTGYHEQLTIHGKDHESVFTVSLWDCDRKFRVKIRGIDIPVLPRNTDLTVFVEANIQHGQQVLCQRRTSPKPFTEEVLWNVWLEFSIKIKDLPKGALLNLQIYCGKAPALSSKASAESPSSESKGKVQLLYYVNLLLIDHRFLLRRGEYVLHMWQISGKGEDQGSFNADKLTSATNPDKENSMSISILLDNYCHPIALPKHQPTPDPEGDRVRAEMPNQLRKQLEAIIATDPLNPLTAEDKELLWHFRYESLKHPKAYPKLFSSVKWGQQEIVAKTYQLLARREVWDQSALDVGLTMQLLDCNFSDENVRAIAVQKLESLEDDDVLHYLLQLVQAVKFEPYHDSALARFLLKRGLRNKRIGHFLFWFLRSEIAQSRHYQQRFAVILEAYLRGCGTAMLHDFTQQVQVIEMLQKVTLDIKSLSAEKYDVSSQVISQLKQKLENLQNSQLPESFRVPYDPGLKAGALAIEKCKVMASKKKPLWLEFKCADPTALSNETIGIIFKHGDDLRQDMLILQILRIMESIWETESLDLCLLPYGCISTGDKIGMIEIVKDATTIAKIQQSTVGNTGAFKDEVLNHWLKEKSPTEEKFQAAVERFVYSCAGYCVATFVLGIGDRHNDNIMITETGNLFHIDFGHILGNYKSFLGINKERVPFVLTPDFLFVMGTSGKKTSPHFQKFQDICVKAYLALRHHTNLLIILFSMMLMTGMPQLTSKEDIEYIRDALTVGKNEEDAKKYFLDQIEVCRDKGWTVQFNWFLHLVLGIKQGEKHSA
T2 sequence (P42338 whole entry, canonical isoform): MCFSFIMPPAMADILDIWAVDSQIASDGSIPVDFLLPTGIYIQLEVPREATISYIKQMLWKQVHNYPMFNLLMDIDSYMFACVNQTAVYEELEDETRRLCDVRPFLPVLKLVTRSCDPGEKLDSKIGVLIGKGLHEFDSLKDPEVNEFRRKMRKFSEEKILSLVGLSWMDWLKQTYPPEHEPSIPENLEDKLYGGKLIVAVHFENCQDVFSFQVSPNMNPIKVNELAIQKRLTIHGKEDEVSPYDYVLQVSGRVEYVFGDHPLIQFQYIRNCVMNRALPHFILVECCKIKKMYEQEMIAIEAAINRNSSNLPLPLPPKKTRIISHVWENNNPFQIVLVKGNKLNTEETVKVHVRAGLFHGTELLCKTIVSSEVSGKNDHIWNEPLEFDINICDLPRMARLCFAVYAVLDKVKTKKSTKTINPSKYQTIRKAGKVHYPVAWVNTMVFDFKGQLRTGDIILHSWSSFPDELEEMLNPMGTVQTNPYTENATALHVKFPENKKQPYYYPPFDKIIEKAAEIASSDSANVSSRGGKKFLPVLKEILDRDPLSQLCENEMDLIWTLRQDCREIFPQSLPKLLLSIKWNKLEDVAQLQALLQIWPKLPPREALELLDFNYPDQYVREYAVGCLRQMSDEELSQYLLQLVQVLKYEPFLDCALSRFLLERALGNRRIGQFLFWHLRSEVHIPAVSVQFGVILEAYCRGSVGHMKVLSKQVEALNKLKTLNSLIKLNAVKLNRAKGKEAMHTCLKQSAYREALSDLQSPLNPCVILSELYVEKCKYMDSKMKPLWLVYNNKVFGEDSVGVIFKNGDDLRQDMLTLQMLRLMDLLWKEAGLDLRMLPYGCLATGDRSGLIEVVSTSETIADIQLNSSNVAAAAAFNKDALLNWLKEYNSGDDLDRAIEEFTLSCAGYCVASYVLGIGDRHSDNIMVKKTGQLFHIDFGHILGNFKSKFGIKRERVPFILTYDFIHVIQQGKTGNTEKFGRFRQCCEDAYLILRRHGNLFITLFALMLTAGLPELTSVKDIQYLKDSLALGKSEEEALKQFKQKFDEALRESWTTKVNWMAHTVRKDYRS
Phosphatidylinositol 4,5-bisphosphate 3-kinase catalytic subunit alpha isoform, sequence (P42336 whole entry, canonical isoform): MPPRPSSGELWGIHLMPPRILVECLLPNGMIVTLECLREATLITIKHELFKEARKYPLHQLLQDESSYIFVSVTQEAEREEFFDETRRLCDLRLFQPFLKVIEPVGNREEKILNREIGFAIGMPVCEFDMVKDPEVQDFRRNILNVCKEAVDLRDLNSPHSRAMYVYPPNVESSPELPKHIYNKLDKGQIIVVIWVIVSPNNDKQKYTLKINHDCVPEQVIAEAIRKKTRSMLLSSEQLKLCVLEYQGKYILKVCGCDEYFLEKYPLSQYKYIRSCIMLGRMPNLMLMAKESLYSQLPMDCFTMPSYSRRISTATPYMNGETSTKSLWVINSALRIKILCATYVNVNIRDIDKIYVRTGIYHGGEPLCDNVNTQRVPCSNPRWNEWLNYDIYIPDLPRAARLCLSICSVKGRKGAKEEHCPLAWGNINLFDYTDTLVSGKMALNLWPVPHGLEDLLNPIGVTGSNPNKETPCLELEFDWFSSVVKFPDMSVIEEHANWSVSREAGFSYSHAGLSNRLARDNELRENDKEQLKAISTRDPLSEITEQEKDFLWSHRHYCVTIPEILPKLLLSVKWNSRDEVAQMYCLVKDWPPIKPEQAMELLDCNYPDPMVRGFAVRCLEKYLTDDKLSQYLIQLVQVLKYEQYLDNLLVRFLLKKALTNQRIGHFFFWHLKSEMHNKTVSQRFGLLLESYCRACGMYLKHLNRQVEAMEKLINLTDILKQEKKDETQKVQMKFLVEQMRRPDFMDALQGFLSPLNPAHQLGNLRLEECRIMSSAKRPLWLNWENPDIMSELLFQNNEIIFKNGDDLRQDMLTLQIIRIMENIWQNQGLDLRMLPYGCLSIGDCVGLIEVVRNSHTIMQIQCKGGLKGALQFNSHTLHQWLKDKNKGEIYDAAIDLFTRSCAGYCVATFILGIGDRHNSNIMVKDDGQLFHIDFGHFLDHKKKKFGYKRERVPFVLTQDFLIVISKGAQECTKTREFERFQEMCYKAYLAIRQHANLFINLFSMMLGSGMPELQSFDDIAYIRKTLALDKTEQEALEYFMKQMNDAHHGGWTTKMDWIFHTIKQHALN

In the case of `C[C@H](Nc1ncnc2[nH]cnc12)c1nc2ccc(F)cc2c(=O)n1-c1ccccc1` [ACALISIB], inhibition in experiment [1] was half-maximal at 12.7 nM (IC50).

Take `COc1ccc(Cl)c(Nc2nc3ccccc3nc2NS(=O)(=O)c2cccc(NC(=O)C(C)(C)N)c2)c1` [PILARALISIB]: the IC50 (in general, the concentration needed to halve the response being measured) in experiment [2] worked out at 36 nM; in experiment [3] it was 383 nM.

On to `CCn1c(=O)c(-c2cc[nH]n2)cc2c(C)nc(N)nc21` [VOXTALISIB], for which the IC50 in experiment [4] is 113 nM; in experiment [5] it was 157 nM; in experiment [6] it was 9 nM; in experiment [7], 39 nM; in experiment [8], 43 nM.
